The term solubility denotes the concentration that dissolves in the medium under given conditions.

This is an account of results in patent US7629470B2, “Formation of tetra-substituted enamides and stereoselective reduction thereof” (Merck & Co., Inc., priority 2004, dated 2009).

This series is described as follows: Solubility of chiral amide in IPA. The following applies: organic solvent or mixture; in IPA (isopropyl alcohol); grams of chiral amide per liter of solvent; concentration up to 45° C. under vacuum. The series is classed as physicochemical. On the procedure: After the hydrogenation was complete (Example 8), 64.9 g of solution was concentrated to 16.9 g up to 45° C. under vacuum. […] MTBE (348.2 g) was added, and the solution was washed with 250 mL of 10% NH4Cl solution. The organic solution was then washed an additional 3 times with water (248 mL for each wash). The residual organic solution was concentrated with MTBE (284.4 g) to azeotrope the water. The solution was concentrated to 53±5 g/kg. The final water concentration was 532 ppm. This solution was then seeded with chiral amide MTBE hemisolvate, 0.5 wt. %, and aged for 20 hours at 20-25° C. At this point, heptane was charge in three aliquots over specific periods of time. The first aliquot of heptane (54 mL), was charged in 9 hours. The second aliquot of heptane (90 mL) was charged in 6 hours. The third aliquot of heptane (294 mL) was charged in 3 hours. At the conclusion of the heptane charge, the solution was aged at 20-25° C. for 2 hours. The solution was filtered over a 5 micron fritted filter. A displacement wash was conducted using 164 mL of 5:1 n-heptane/MTBE, and the solids were dried at less than 45° C. under vacuum. The final water concentration was <0.5 wt. % (by KF). The final MTBE concentration was 11-12 wt. % (as a hemisolvate) and the final heptane concentration was <0.5 wt. % (both by GC). The chiral amide/MTBE hemisolvate was isolated in 90% yield, 99.3 LCAP.

Consider `C[C@H](NC(=O)C(C)(C)Oc1ccc(C(F)(F)F)cn1)[C@@H](Cc1ccc(Cl)cc1)c1cccc(C(N)=O)c1` [chiral amide, 3-{(1S,2S)-1-(4-chlorobenzyl)-2-[(2-methyl-2-{[5-(trifluoromethyl)pyridine-2-yl]oxy}propanoyl)amino]-propyl}benzamide], for which the solubility was greater than 1350 mg/mL.
